This is an account of results in paper PMC1073692, “An Unbiased Cell Morphology–Based Screen for New, Biologically Active Small Molecules” (PLoS Biology, 2005).

Converted amounts (≈) assume the structure as drawn. Read-outs that look alike come from different tables or passages of the source. A value given as a limit tells only on which side of the number the result lay.

One data set concerns the target T1, human CBR1 (Homo sapiens, UniProt P16152).
T1 sequence (P16152 1-277): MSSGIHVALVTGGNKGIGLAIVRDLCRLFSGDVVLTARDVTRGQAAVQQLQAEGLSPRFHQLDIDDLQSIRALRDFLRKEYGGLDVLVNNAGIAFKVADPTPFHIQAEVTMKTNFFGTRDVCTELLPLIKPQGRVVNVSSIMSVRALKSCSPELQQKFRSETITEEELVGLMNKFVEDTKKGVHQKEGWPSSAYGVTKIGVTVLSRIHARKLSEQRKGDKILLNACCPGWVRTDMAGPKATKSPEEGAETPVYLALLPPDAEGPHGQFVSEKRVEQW
Kind of data set: CBR1 assay (NADPH-dependent reduction of menadione, spectrophotometric).

The target of the next data set is T2, Fyn (Homo sapiens, UniProt P06241).
T2 construct: made in house; host or cells: bacteria
T2 sequence (P06241 whole entry, species assumed): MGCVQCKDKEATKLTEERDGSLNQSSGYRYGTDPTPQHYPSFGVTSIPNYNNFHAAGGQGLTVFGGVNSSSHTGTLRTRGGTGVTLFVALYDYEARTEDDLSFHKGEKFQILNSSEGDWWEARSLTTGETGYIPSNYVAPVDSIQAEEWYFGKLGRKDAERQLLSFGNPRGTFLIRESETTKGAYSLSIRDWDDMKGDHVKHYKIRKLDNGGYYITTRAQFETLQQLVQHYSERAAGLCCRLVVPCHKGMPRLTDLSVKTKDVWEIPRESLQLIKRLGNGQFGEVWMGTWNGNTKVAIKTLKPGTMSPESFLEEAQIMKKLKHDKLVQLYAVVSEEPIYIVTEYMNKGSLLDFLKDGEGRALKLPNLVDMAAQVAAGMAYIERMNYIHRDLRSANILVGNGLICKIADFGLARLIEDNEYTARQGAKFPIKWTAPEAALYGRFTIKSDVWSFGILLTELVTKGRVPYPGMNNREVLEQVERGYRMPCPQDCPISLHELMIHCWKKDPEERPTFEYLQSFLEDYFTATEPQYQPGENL
Kind of data set: Kinase disk assay (32P transfer to peptide), Fyn. Format: biochemical. The procedure:
(§1) Fyn and p38 kinases were expressed in bacteria and purified as previously described. Protein kinase A and Protein kinase B were obtained commercially (Upstate Cell Signaling Specialties Charlottesville, Virginia, United States). […] Reaction mixtures (27 μl) were spotted onto a phosphocellulose disk and washed with 0.5% H3PO4. The transfer of ^32P was measured by standard scintillation counting. […] When the IC50 value fell between two measured concentrations, it was calculated based on the assumption of an inversely proportional relationship between inhibitor concentration and counts per minute between the two data points.
(§2) IC50 values against Fyn and p38 are given (left), and percentage activity of PKA and PKB in presence of the inhibitors are given (right). Kinase activity was determined using a standardized disk assay based on the P^32 transfer to a synthetic peptide (See Materials and Methods). […] Peptide subrate sequences for each kinase are shown below:
[…] (100 µM) was used as the substrate for Fyn.

The test system of data set [1] is A549, DU145, HUVEC, SF268 and SKOV3 cells. Kind of data set: Cytometrix cell morphology-based screen. Details: species or system human. Conditions: 24 h, 6 nM to 40 μM, five cell types. How it is done:
SKOV3 (ovarian epithelial cancer), A549 (lung epithelial cancer), and SF268 (central nervous system epithelial cancer) were chosen for their broad genetic diversity and obtained from the National Institutes of Health. These human cells were grown and maintained in RMPI medium (Mediatech, Herndon, Virginia, United States) with 5% fetal calf serum (FBS, HyClone, Logan, Utah, United States). DU145 (prostate epithelial cancer) cells ( ATTC, Manassas, Virginia, United States) were maintained in MEM with 5% FBS. HUVEC cells (VEC Technologies, Rensselaer, New York, United States) were maintained in MCDB131 medium (VEC Technologies) with 10% FBS. For the assays 1,000–1,800 trypsinized (Mediatech) cells per well (depending on cell type) were plated in 384-well plates (Corning Costar, Acton, Massachusetts, United States) using a Multidrop (Thermo Labsystems, Beverly, Massachusetts, United States) and incubated for 24 h, the approximate doubling time. Six cell plates were made for each cell line.
Compound stocks were maintained in DMSO. Compound information was stored in ActivityBase (ID Business Solutions, Guildford, United Kingdom). Compounds were serially diluted in 384-well drug plates to achieve eight concentrations diluting 3× in DMSO between wells using a Multimek (Beckman Coulter, Fullerton, California, United States). Wells were reserved on every drug plate for negative and positive controls. Negative-control wells contained DMSO only and the positive-control wells received a titration of paclitaxel, a tubulin stabilizer (Sigma-Aldrich-Fluka, St. Louis, Missouri, United States). […] Small molecules were tested at 40 μM on cells based on the logic that cellular effects on cells at […] concentration are most likely nonspecific and that we would most likely get a full-dose response after eight 3-fold dilutions (6 nM to 40 μM final concentrations).
Compounds were added to cell plates from drug plates. Compound mixed with medium was added to the cells to achieve a 0.4% DMSO concentration on prepared cell plates using a PlateTrak (CCS Packard, Torrance, California, United States). Treated cells were incubated for another 24 h, the compound exposure time.
Cells were stained for visualization of the nuclei, Golgi apparatus, and microtubules. Cells were fixed with 4% formaldehyde (Polysciences, Warrington, Pennsylvania, United States) for 1 h; washed in TBS (Teknova, Half Moon Bay, California, United States); blocked in 0.01% Triton X-100 (ICN Biomedicals, Irvine, California, United States) and 1% BSA in TBS (Teknova) and then left to incubate for 1 h; stained with 0.01% Triton X-100, 0.1% BSA, 5 μg/ml Hoechst 33342 (Molecular Probes, Eugene, Oregon, United States), 5 μg/ml FITC-Lectin Lens Culinaris (Sigma-Aldrich-Fluka), and 3 μg/ml Rhodamine Red–labeled monoclonal antibody DM1α (courtesy of Tim Stearns) for 1 h; and then washed in TBS. All of these steps were performed with a PlateTrak using an ELx405 microplate washer (Bio-Tek Instruments, Winooski, Vermont, United States). This was done in triplicate for each cell line.
Cells were imaged on an inverted Axiovert 100M epifluorescent microscope (Carl Zeiss, Oberkochen, Germany) with a 5× objective and a Xenon lamp (Sutter Instruments, Novato, California, United States). A 5× magnification was chosen (rather than 40×) primarily as a function of the need to acquire a large number of individual cells in order to gather statistically relevant data on relatively rare subpopulations. The number of cells in a randomly acquired 40× image is not sufficient to make meaningful statistical measurements across many cells. Metamorph (Universal Imaging, Downingtown, Pennsylvania, United States) was used to control the motorized x, y, z stage (Prior Scientific, Rockland, Massachusetts, United States) that moved the plate to each well, autofocused, and took three successive fluorescent images with an Orca 100 camera (Hamamatsu, Hamamatsu City, Japan). […]

In a further data set the target is T3, protein kinase A (Homo sapiens, UniProt P17612).
T3 construct: purchased Upstate Cell Signaling Specialties
Kind of data set: Kinase disk assay (32P transfer to peptide), PKA. Format: biochemical. As to conditions: remaining kinase activity. The procedure:
as §1, §2
bzRRASLG (100 µM) was used as the susbtrate for PKA.

Data set [2] is described as follows: Solubility limit in the CBR1 assay. Format: physicochemical.
In a further data set the target is T4, protein kinase B (Homo sapiens, UniProt P31749).
T4 construct: purchased Upstate Cell Signaling Specialties
T4 sequence (P31749 whole entry, species assumed): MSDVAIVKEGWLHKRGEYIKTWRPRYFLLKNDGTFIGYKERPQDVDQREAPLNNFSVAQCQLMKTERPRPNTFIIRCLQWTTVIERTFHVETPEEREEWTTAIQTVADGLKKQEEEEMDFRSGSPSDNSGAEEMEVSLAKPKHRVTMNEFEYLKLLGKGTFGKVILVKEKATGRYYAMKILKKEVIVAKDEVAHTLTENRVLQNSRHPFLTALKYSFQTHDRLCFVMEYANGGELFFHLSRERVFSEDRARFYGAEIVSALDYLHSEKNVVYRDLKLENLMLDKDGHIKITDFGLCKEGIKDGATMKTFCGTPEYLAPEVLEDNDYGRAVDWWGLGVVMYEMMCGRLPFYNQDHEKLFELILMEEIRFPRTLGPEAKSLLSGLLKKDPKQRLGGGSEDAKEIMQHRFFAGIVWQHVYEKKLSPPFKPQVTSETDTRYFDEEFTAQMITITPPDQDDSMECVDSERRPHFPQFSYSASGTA
As to the kind of experiment: Kinase disk assay (32P transfer to peptide), PKB. Conditions: 25 min; 1 µM inhibitor; remaining kinase activity; read-out: Relative activity @ 1 µM inhibitor PKB. Format: biochemical. How it is done: as §1, §2
bzRPRTSSF (100 µM) was used as the susbtrate for PKB.

The next data set concerns the target T5, p38-α (Homo sapiens, UniProt Q16539).
T5 construct: made in house; host or cells: bacteria
Kind of data set: Kinase disk assay (32P transfer to peptide), p38. Format: biochemical. As to conditions: Table S3; […] 100 µM substrate, 11 nM [γ-32P]ATP. How it is done: as §1, §2
[…] (100 µM) was used as the substrate for p38.

T5 sequence (Q16539 whole entry): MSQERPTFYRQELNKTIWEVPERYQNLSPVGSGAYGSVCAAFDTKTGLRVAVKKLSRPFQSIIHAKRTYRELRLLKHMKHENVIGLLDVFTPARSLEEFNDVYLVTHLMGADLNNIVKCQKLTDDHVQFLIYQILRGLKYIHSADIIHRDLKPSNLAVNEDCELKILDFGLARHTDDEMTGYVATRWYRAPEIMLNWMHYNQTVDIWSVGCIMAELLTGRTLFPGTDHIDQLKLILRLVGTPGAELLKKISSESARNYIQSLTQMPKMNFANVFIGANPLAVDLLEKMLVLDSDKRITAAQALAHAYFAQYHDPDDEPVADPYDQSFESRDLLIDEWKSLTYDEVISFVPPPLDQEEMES
Description for human CBR1: CBR1 activity was determined spectrophotometrically at 25 °C. The standard assay mixture consisted of 50 mM sodium phosphate (pH 6.8), 200 μM NADPH, and 200 μM menadione in a total volume of 1 ml. Compounds were dissolved in DMSO as 100× stock solutions. Reactions were initiated by the addition of enzyme, and initial rates were determined by monitoring the disappearance of NADPH at 340 nM. Controls without substrates or enzyme were routinely included.

As for `CC(C)(C)n1nc(-c2ccccc2)c2c(N)ncnc21` [PP, 1-tert-butyl-3-phenyl-1H-pyrazolo[3,4-d]pyrimidin-4-amine, reference compound], the IC50 against human CBR1 (IC50 against CBR1, 200 μM NADPH, 200 μM menadione, pH 6.8, 25 °C) was above 200000 nM; on Fyn (Table S3, LEEIYGEFKKK 100 µM substrate, 11 nM [γ-32P]ATP, read-out: IC50 (nM) Fyn) it was 110 nM; on Fyn (read-out: IC50 against Fyn (Figure 3)) it was 50 nM; on p38-α it was 4000 nM. At human CBR1 (up to solubility limit of 200 μM), the “Inhibition of CBR1 activity” value is given as “no inhibition”. Moreover, in data set [1], the “Cytometrix phenotype (PCA trajectory)” value is “phenotypic profile comparable to PP2”. In addition, the “Relative activity @ 1 µM inhibitor PKA” value at protein kinase A is reported as 92%. In data set [2], this molecule gave a solubility of 200 µM (≈ 53.5 µg/mL). Also, the activity at 1 µM on protein kinase B turned out to be 92%.

By IC50 is commonly meant the concentration at which inhibition is half-maximal. As a reminder, the solubility is how much of the substance goes into solution per volume.
